SMILES strings stand for the structures. Where “and” joins values, the source holds several entries; their conditions need not be identical. Equal values may be shown once.

Probable nicotinate-nucleotide adenylyltransferase, sequence (P65502 whole entry): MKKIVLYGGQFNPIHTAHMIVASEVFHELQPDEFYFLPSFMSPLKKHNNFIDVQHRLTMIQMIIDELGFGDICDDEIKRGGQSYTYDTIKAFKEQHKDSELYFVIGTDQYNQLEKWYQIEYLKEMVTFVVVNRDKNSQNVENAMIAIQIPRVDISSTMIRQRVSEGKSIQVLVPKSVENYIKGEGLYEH

The experiment concerns the target Probable nicotinate-nucleotide adenylyltransferase (Staphylococcus aureus (strain N315), UniProt P65502).
In general, IC50 refers to the point on the concentration scale where inhibition reaches its midpoint. As to `O=C1C(=O)N(c2nc3ccc(Cl)cc3s2)C(c2ccco2)C1C(=O)c1ccco1` (centres undefined), the 50% inhibitory concentration (IC50) came to 56.8 µM. The figure for `CCOc1ccc(CN=Nc2ccc(S(=O)(=O)Nc3ccccc3C(=O)O)cc2[N+](=O)[O-])cc1` is 15.6 µM; for `O=C(O)Cc1sc(N=NCc2ccccc2)nc1-c1ccccc1` it is 27.7 µM; for `C1=NC2CCCC2C(N2CCCC2)=C1` (centres undefined) it is 50 µM. The figure for `Cc1ccccc1COc1ccc(C(=O)C2C(=O)C(=O)N(CCCn3ccnc3)C2c2ccco2)cc1` (centres undefined) is 80 µM; for `Cc1ccc(Nc2nnc(SCC(=O)C(C#N)c3nc4ccccc4[nH]3)s2)c(C)c1` (centres undefined) [2-(1,3-dihydrobenzimidazol-2-ylidene)-4-[[5-(2,4-dimethylanilino)-1,3,4-thiadiazol-2-yl]thio]-3-oxobutanenitrile] it is 26.7 µM and 21.4 µM; for `Cc1ccc(-n2[nH]c(C)c(C(c3cccc(O)c3)c3c(C)[nH]n(-c4ccc(C)c(C)c4)c3=O)c2=O)cc1C` [2-(3,4-dimethylphenyl)-4-[[1-(3,4-dimethylphenyl)-5-hydroxy-3-methyl-1H-pyrazol-4-yl](3-hydroxyphenyl)methyl]-5-methyl-2,4-dihydro-3H-pyrazol-3-one] it is 15.1 µM. The figure for `N#CC1C(=S)N=C(N)C(c2nc(-c3ccccc3)cs2)C12CCCCC2` (centres undefined) [2-amino-4-mercapto-1-(4-phenyl-2-thiazolyl)-3-azaspiro[5.5]undeca-2,4-diene-5-carbonitrile] is 23.2 µM; for `Cc1cc(N2C(=O)C(=O)C(C(=O)c3ccc(C)o3)C2c2ccc(OCc3ccccc3)cc2)no1` (centres undefined) [3-(5-methylfuran-2-yl)carbonyl-1-(5-methyl-1,2-oxazol-3-yl)-4-oxidanyl-2-(4-phenylmethoxyphenyl)-2H-pyrrol-5-one] it is 28.9 µM; for `N#CC1C(=S)N=C(N)C(c2nc(-c3ccccc3)cs2)C12CCCC2` (centres undefined) [7-amino-9-mercapto-6-(4-phenyl-2-thiazolyl)-8-azaspiro[4.5]deca-7,9-diene-10-carbonitrile] it is 19.1 µM. `Cc1cccc(C)c1Nc1nnc(SCC(=O)C(C#N)c2nc3ccccc3[nH]2)s1` (centres undefined) [MLS000392242] returned an IC50 of 25.2 µM. In the case of `CCc1nnc(NS(=O)(=O)c2ccc(N=CCC(=O)c3ccc4ccccc4c3)cc2)s1` [N-(5-Ethyl-[1,3,4]thiadiazol-2-yl)-4-(3-naphthalen-2-yl-3-oxo-propenylamino)-benzenesulfonamide], the IC50 came out at 29.7 µM. On to `CC(=NNC(=O)c1cccc(N=NC(C)c2ccco2)c1)c1ccco1` (centres undefined) [N-[1-(2-furanyl)ethylideneamino]-3-[2-[1-(2-furanyl)ethylidene]hydrazinyl]benzamide], for which the IC50 amounted to 14.8 µM. The same measure for `Cc1ccc(-n2c(O)cc(N(CCc3ccccc3)C(=S)Nc3ccc(N(C)C)cc3)c2O)cc1` [SMR000159829]: 77.7 µM; for `Cc1[nH]n(-c2ccc(Cl)cc2)c(=O)c1C(c1ccccc1O)c1c(C)[nH]n(-c2ccc(Cl)cc2)c1=O` [SMR000171531]: 21.1 µM. On to `COc1cccc(OCc2cc(CN=Nc3ccc(C(=O)O)cc3)ccc2OC)c1` [SMR000415960], for which inhibition was half-maximal at 25.5 µM (IC50). For the compound `Nc1ccccc1C(=O)NNC(=O)C(=O)CC(=O)c1ccccc1` [SMR000427706], the IC50 was 12 µM.

For the compound `C#CCN(C[C@@H]1c2c(c(O)n(-c3ccccc3)c2O)C[C@@H](OC(=O)Nc2cccs2)[C@H]1OC(=O)Nc1cccs1)S(=O)(=O)c1ccc(C)cc1` [[(3aR,5R,6S,7S,7aS)-7-[[(4-methylphenyl)sulfonyl-prop-2-ynyl-amino]methyl]-1,3-bis(oxidanylidene)-2-phenyl-6-(thiophen-2-ylcarbamoyloxy)-3a,4,5,6,7,7a-hexahydroisoindol-5-yl] N-thiophen-2-ylcarbamate], the IC50 was determined as 34.5 µM. The same measure for `CCOC(=O)c1ccccc1-n1c(O)c2c(c1O)C(C=Cc1ccccc1)c1sc(=O)[nH]c1S2` (centres undefined) [ethyl 2-[2,5,7-trioxo-8-[(E)-2-phenylethenyl]-3,4a,7a,8-tetrahydropyrrolo[2,3]thiopyrano[4,5-b][1,3]thiazol-6-yl]benzoate]: 45.9 µM.

Values taken from BindingDB's records for doi:10.7270/Q2BV7F7H (Burnham Center For Chemical Genomics, 2012).
